In patent US20150272979A1, “COMBINATION THERAPEUTIC COMPOSITION” (Hoffman La-Roche Inc., priority 2012, published 2015):

How the values were obtained:
[1] = biological target: CYP3A4 (Homo sapiens, UniProt P08684); test: Metabolism by recombinant CYPs; format: in vitro ADME
Text: (§1) Therefore, a cytochrome P450 monooxygenase inhibitor in an amount effective to inhibit metabolism of the protease inhibitor could increase the bioavailability of Compound 2 compared to administration in the absence of the CYP inhibitor.

[2] = test system: CYP isozymes including 3A4, 2C19, 1A2, 2D6, and 2C9; test: Cytochrome P450 phenotyping using chemical inhibitors; format: in vitro ADME; settings: early preclinical studies
Text: as §1

[3] = test system: HCV replication; settings: general statement; cited from earlier work

CYP3A4, sequence (P08684 whole entry): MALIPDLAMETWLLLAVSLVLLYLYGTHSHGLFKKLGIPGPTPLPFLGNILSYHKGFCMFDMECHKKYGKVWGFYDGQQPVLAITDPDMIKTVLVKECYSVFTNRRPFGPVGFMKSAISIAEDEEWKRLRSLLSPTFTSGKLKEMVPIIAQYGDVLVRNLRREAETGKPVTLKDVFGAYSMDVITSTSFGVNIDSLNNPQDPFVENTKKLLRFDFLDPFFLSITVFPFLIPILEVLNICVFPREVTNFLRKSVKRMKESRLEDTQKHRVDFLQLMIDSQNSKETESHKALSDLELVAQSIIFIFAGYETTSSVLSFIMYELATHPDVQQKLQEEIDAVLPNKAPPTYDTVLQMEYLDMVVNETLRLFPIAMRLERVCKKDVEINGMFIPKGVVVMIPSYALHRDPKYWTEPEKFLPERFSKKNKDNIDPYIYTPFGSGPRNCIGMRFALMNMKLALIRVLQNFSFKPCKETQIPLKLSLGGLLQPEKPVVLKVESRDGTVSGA

SMILES | Metabolism by recombinant CYPs [1] | CYP isozymes participating in metabolism [2] | Inhibition of HCV replication [3]
CC(C)(C)OC(=O)N[C@H]1CCCCC/C=C\[C@@H]2C[C@@]2(C(=O)NS(=O)(=O)C2CC2)NC(=O)[C@@H]2C[C@@H](OC(=O)N3Cc4cccc(F)c4C3)CN2C1=O [Compound 2, (1S,4R,6S,14S,18R)-4-Fluoro-1,3-dihydro-isoindole-2-carboxylic acid 14-tert-butoxycarbonylamino-4-cyclopropanesulfonylaminocarbonyl-2,15-dioxo-3,16-diaza-tricyclo[14.3.0.04,6]nonadec-7-en-18-yl ester] | only CYP3A4 metabolized Compound 2 to an extent that could influence the pharmacokinetics | multiple CYP isozymes including 3A4, 2C19, 1A2, 2D6, and 2C9 participate in the metabolism | effective in inhibiting HCV replication
CS(=O)(=O)Nc1ccc2c(c1)S(=O)(=O)N=C(C1=C(O)C3C([C@@H]4CC[C@H]3C4)N(Cc3ccc(F)cc3)C1=O)N2 (stereo partly shown) [Compound 3] |  |  | effective in inhibiting HCV replication
